Read-outs that look alike come from different tables or passages of the source.
What was measured:
[1] = tested on: Plasmopara viticola (PLASVI); type: in vivo; details: for Reduction in percent disease: aldehyde derivative 100 ppm with mancozeb
[2] = tested on: Pseudoperonospora cubensis (PSPECU); details: in vivo
[3] = tested on: Phytophthora infestans (PHYTIN); type: in vivo; details: for effect of Formulation I on the effectiveness of fungicides, PHYTIN: Table 20
[4] = fungicide with Formulation I at 100 ppm, Table 19
[5] = fungicide with Formulation I at 100 ppm
[6] = fungicide with Formulation I at 100 ppm, Table 18
[7] = aldehyde derivative 500 ppm with mancozeb, Table 16

SMILES: C[C@@]1(c2ccc(Oc3ccccc3)cc2)OC(=O)N(Nc2ccccc2)C1=O (racemic) [Famoxadone]
- Reduction in percent disease PLASVI [1, 4]: x (0-20% reduction in percent disease)
- Reduction in percent disease PSPECU [2]: x (key: x: 0-20% reduction in percent disease; xx: 21-35% reduction in percent disease; xxx: 36-50% reduction in percent disease; xxxx: >50% reduction in percent disease)
- Reduction in percent disease PHYTIN [3, 4]: xx (21-35% reduction in percent disease)

SMILES: Cc1c(Br)c2ccc(F)cc2n1S(=O)(=O)c1ncn(S(=O)(=O)N(C)C)n1 [Amisulbrom]
- Reduction in percent disease, Formul. I ([1]; PLASVI, fungicide with Formulation I at 100 ppm, Table 21): xxx (36-50% reduction in percent disease)
- Reduction in percent disease, Formul. II ([1]; PLASVI, fungicide with Formulation II at 100 ppm, Table 21): xx (21-35% reduction in percent disease)
- effect of Formulation I on the effectiveness of fungicides, PLASVI ([1]; fungicide with Formulation I at 100 ppm, Table 20): x (0-20% reduction in percent disease)
- Reduction in percent disease, Formul. I [2]: x (key: x: 0-20% reduction in percent disease; xx: 21-35% reduction in percent disease; xxx: 36-50% reduction in percent disease; xxxx: >50% reduction in percent disease)
- Reduction in percent disease, Formul. II [2]: x (key: x: 0-20% reduction in percent disease; xx: 21-35% reduction in percent disease; xxx: 36-50% reduction in percent disease; xxxx: >50% reduction in percent disease)
- Reduction in percent disease, Formul. I ([3]; PHYTIN, fungicide with Formulation I at 100 ppm, Table 21): x (0-20% reduction in percent disease)
- Reduction in percent disease, Formul. II ([3]; PHYTIN, fungicide with Formulation II at 100 ppm, Table 21): x (0-20% reduction in percent disease)
- effect of Formulation I on the effectiveness of fungicides, PHYTIN [3, 5]: x (0-20% reduction in percent disease)

SMILES: CO/C=C(/C(=O)OC)c1ccccc1Oc1cc(Oc2ccccc2C#N)ncn1 [Azoxystrobin]
- Reduction in percent disease PLASVI [1, 6]: x (0-20% reduction in percent disease)
- Reduction in percent disease PSPECU [2]: x (key: x: 0-20% reduction in percent disease; xx: 21-35% reduction in percent disease; xxx: 36-50% reduction in percent disease; xxxx: >50% reduction in percent disease)
- effect of Formulation I on the effectiveness of fungicides, PSPECU [2]: x (key: x: 0-20% reduction in percent disease; xx: 21-35% reduction in percent disease; xxx: 36-50% reduction in percent disease; xxxx: >50% reduction in percent disease)
- Reduction in percent disease PHYTIN [3, 6]: xx (21-35% reduction in percent disease)
- effect of Formulation I on the effectiveness of fungicides, PHYTIN [3, 5]: xxx (36-50% reduction in percent disease)

SMILES: CC(C)[C@H](NC(=O)O)C(=O)N[C@H](C)c1nc2ccc(F)cc2s1 [Benthiavalicarb]
- Reduction in percent disease PLASVI [1, 4]: x (0-20% reduction in percent disease)
- Reduction in percent disease PSPECU [2]: xx (key: x: 0-20% reduction in percent disease; xx: 21-35% reduction in percent disease; xxx: 36-50% reduction in percent disease; xxxx: >50% reduction in percent disease)
- Reduction in percent disease PHYTIN [3, 4]: x (0-20% reduction in percent disease)

SMILES: CC(C)CC=NNC(=O)c1cccc(C(=O)N/N=C/CC(C)C)c1 [Compound C]
- Reduction in percent disease ([1]; PLASVI, Table 13): xx (21-35% reduction in percent disease)
- Reduction in percent disease ([1]; PLASVI, Table 15): xx (21-35% reduction in percent disease)
- Reduction in percent disease [2]: xxx (key: x: 0-20% reduction in percent disease; xx: 21-35% reduction in percent disease; xxx: 36-50% reduction in percent disease; xxxx: >50% reduction in percent disease)

SMILES: CC(C)C/C=N/NC(N)=O [Compound D]
- Reduction in percent disease ([1]; PLASVI, Table 13): x (0-20% reduction in percent disease)
- Reduction in percent disease [2]: xx (key: x: 0-20% reduction in percent disease; xx: 21-35% reduction in percent disease; xxx: 36-50% reduction in percent disease; xxxx: >50% reduction in percent disease)

SMILES: CC(C)C/C=N/NC(=O)CCCC(=O)N/N=C/CC(C)C [Compound E]
- Reduction in percent disease ([1]; PLASVI, Table 13): xx (21-35% reduction in percent disease)
- Reduction in percent disease [2]: xxx (key: x: 0-20% reduction in percent disease; xx: 21-35% reduction in percent disease; xxx: 36-50% reduction in percent disease; xxxx: >50% reduction in percent disease)

SMILES: CC(C)C/C=N/NC(=O)N/N=C/CC(C)C [Compound F]
- Reduction in percent disease ([1]; PLASVI, Table 13): x (0-20% reduction in percent disease)
- Reduction in percent disease [2]: xx (key: x: 0-20% reduction in percent disease; xx: 21-35% reduction in percent disease; xxx: 36-50% reduction in percent disease; xxxx: >50% reduction in percent disease)

SMILES: CC(C)C/C=N/NC(=O)C(=O)N/N=C/CC(C)C [Compound G]
- Reduction in percent disease ([1]; PLASVI, Table 13): xx (21-35% reduction in percent disease)
- Reduction in percent disease [2]: xxx (key: x: 0-20% reduction in percent disease; xx: 21-35% reduction in percent disease; xxx: 36-50% reduction in percent disease; xxxx: >50% reduction in percent disease)

SMILES: CC(=O)N/N=C/CC(C)C [Compound H]
- Reduction in percent disease ([1]; PLASVI, Table 13): xx (21-35% reduction in percent disease)
- Reduction in percent disease [2]: xx (key: x: 0-20% reduction in percent disease; xx: 21-35% reduction in percent disease; xxx: 36-50% reduction in percent disease; xxxx: >50% reduction in percent disease)

SMILES: CC(C)C/C=N/NC(=O)c1ccccc1 [Compound I]
- Reduction in percent disease [2]: xx (key: x: 0-20% reduction in percent disease; xx: 21-35% reduction in percent disease; xxx: 36-50% reduction in percent disease; xxxx: >50% reduction in percent disease)

SMILES: CC(C)C/C=N/NC(=O)CCCCCCCCC(=O)N/N=C/CC(C)C [Compound J]
- Reduction in percent disease ([1]; PLASVI, Table 15): x (0-20% reduction in percent disease)
- Reduction in percent disease [2]: xx (key: x: 0-20% reduction in percent disease; xx: 21-35% reduction in percent disease; xxx: 36-50% reduction in percent disease; xxxx: >50% reduction in percent disease)

SMILES: CCCCCCCC(=O)N/N=C/CC(C)C [Compound K]
- Reduction in percent disease ([1]; PLASVI, Table 15): xx (21-35% reduction in percent disease)
- Reduction in percent disease [2]: xx (key: x: 0-20% reduction in percent disease; xx: 21-35% reduction in percent disease; xxx: 36-50% reduction in percent disease; xxxx: >50% reduction in percent disease)

SMILES: CCCCCCCCCCCCCCCCCC(=O)NN=CCC(C)C [Compound L]
- Reduction in percent disease ([1]; PLASVI, Table 15): xxx (36-50% reduction in percent disease)
- Reduction in percent disease [2]: xx (key: x: 0-20% reduction in percent disease; xx: 21-35% reduction in percent disease; xxx: 36-50% reduction in percent disease; xxxx: >50% reduction in percent disease)

SMILES: CCCC(=O)N/N=C/CC(C)C [Compound M]
- Reduction in percent disease ([1]; PLASVI, Table 15): xx (21-35% reduction in percent disease)
- Reduction in percent disease [2]: xxx (key: x: 0-20% reduction in percent disease; xx: 21-35% reduction in percent disease; xxx: 36-50% reduction in percent disease; xxxx: >50% reduction in percent disease)

SMILES: CC(C)C/C=N/NC(=O)CCCCC(=O)N/N=C/CC(C)C [Compound N]
- Reduction in percent disease ([1]; PLASVI, Table 15): x (0-20% reduction in percent disease)
- Reduction in percent disease [2]: xx (key: x: 0-20% reduction in percent disease; xx: 21-35% reduction in percent disease; xxx: 36-50% reduction in percent disease; xxxx: >50% reduction in percent disease)

SMILES: C/C(CC(C)C)=N\NC(=O)Nc1ccccc1 [Compound O]
- Reduction in percent disease PLASVI [1, 7]: x (0-20% reduction in percent disease)
- Reduction in percent disease PSPECU [2]: xx (key: x: 0-20% reduction in percent disease; xx: 21-35% reduction in percent disease; xxx: 36-50% reduction in percent disease; xxxx: >50% reduction in percent disease)
- Reduction in percent disease PHYTIN [3, 7]: xx (21-35% reduction in percent disease)

SMILES: CCC(C)/C=N/NC(=O)c1cccc(C(=O)N/N=C/C(C)CC)c1 (centres unmarked) [Compound P]
- Reduction in percent disease PLASVI [1, 7]: x (0-20% reduction in percent disease)
- Reduction in percent disease PSPECU [2]: x (key: x: 0-20% reduction in percent disease; xx: 21-35% reduction in percent disease; xxx: 36-50% reduction in percent disease; xxxx: >50% reduction in percent disease)
- Reduction in percent disease PHYTIN [3, 7]: x (0-20% reduction in percent disease)

SMILES: CC(C)(C)C/C=N/NC(=O)c1cccc(C(=O)N/N=C/CC(C)(C)C)c1 [Compound S]
- Reduction in percent disease PLASVI [1, 7]: x (0-20% reduction in percent disease)
- Reduction in percent disease PSPECU [2]: x (key: x: 0-20% reduction in percent disease; xx: 21-35% reduction in percent disease; xxx: 36-50% reduction in percent disease; xxxx: >50% reduction in percent disease)
- Reduction in percent disease PHYTIN [3, 7]: xx (21-35% reduction in percent disease)

SMILES: O=C1c2ccccc2C(=O)N1SC(Cl)(Cl)Cl [Folpet]
- Reduction in percent disease, Formul. I [2]: x (key: x: 0-20% reduction in percent disease; xx: 21-35% reduction in percent disease; xxx: 36-50% reduction in percent disease; xxxx: >50% reduction in percent disease)
- Reduction in percent disease, Formul. I ([3]; PHYTIN, fungicide with Formulation I at 100 ppm of attractant derivative, Table 22): x (0-20% reduction in percent disease)

SMILES: CO/N=C(/C(=O)OC)c1ccccc1COc1ccccc1C [Kresoxim-methyl]
- Reduction in percent disease PSPECU [2]: x (key: x: 0-20% reduction in percent disease; xx: 21-35% reduction in percent disease; xxx: 36-50% reduction in percent disease; xxxx: >50% reduction in percent disease)
- Reduction in percent disease, Formul. II [2]: x (key: x: 0-20% reduction in percent disease; xx: 21-35% reduction in percent disease; xxx: 36-50% reduction in percent disease; xxxx: >50% reduction in percent disease)
- Reduction in percent disease PHYTIN [3, 6]: x (0-20% reduction in percent disease)

SMILES: COC(=O)N(OC)c1ccccc1COc1ccn(-c2ccc(Cl)cc2)n1 [Pyraclostrobin]
- Reduction in percent disease PSPECU [2]: x (key: x: 0-20% reduction in percent disease; xx: 21-35% reduction in percent disease; xxx: 36-50% reduction in percent disease; xxxx: >50% reduction in percent disease)
- Reduction in percent disease PHYTIN [3, 6]: x (0-20% reduction in percent disease)
